According to patent US20120095058A1, “Method of preventing survival of retrovirally cells and of inhibiting formation of infectious retroviruses” (priority 2003, published 2012):

Tests used:
HIV-1 infected H9 cells = assay: Apoptosis of HIV-1 infected H9 cells by TUNEL flow cytometry; type: cell-based, human; conditions: for apoptosis at maximal concentration: H9 cells, IMP 400 μM, DES 20 μM; for initiation of apoptosis: HIV-1 infected lymphocyte cell line H9, dose dependence
Description: (§1) Methods: The drug deferiprone (DEF) and ciclopirox (CPX), known as DOHH inhibitors, were compared to the chelators 2-imidazoyl-4-methylphenol (IMP) and desferal (DES). Apoptosis of HIV-1 infected H9 cells, HPV-16 infected SiHa cells, and uninfected lymphocytes was analyzed by TUNEL flow cytometry. DOHH) activity was measured by metabolic labeling with 3H-spennidine.

[1] = molecular target: T1, deoxyhypusine hydroxylase (DOHH) (Homo sapiens, UniProt Q9BU89); assay: DOHH activity in HPV-16 infected SiHa cells by metabolic labeling with 3H-spermidine; type: cell-based; design: inhibition of DOHH: dose or concentration left out as unconfirmed; conditions: for inhibition of DOHH: HPV-positive SiHa cells
T1 construct: endogenous in cells; host or cells: HIV-1 infected H9 cells
T1 sequence (Q9BU89 1-302): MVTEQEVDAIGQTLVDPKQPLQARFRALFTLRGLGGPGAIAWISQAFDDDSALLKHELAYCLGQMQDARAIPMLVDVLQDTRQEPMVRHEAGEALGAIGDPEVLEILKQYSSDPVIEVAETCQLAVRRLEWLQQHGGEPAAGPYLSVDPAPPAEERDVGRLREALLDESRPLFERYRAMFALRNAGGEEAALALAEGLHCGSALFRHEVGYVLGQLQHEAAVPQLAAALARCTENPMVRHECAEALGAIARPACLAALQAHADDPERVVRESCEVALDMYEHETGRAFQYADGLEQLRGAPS
Description: as §1

[2] = molecular target: T1, deoxyhypusine hydroxylase (DOHH); assay: DOHH activity in HIV-1 infected H9 cells by metabolic labeling with 3H-spermidine; type: cell-based; design: inhibition of DOHH: dose or concentration left out as unconfirmed; conditions: for concentration with complete suppression of DOHH activity: H9 cells; for inhibition of cellular DOHH: HIV-1 infected H9 cells, dose dependence
Description: as §1
DOHH activity was measured by metabolic labeling with radioactive spermidine (see FIG. 2), followed by protein hydrolysis\ and amino acid analysis as reported (Hanauske-Abel et al., FEBS Left. 366, 92-98, 1995, which is hereby incorporated by reference). This finding corroborates the results obtained with purified DOHH (FIG. 3) and is consistent with the findings presented in FIG. 1.

uninfected lymphocytes = assay: Apoptosis of uninfected lymphocytes by TUNEL flow cytometry; type: cell-based, human; conditions: for apoptosis of lymphocytes harvested from healthy volunteers: exposed for 20 hours
Description: as §1

[3] = system: HPV-16 infected SiHa cells; assay: Apoptosis of HPV-16 infected SiHa cells by TUNEL flow cytometry; type: cell-based, human
Description: as §1

HIV-1 = assay: p24 formation in HIV-1-infected H9 cells by immunoassay; type: cell-based, human; conditions: FIG. 5
[4] = system: peripheral blood mononuclear cells acutely infected with HIV-1; assay: Apoptosis in fresh peripheral blood mononuclear cells acutely infected with a patient isolate of HIV-1; type: cell-based, human; conditions: preferentially when acutely infected with HIV-1, FIG. 8
Source text: This effect is ascribed to the suppression of retroviral antiapoptotic proteins as part of the general suppression of retroviral protein synthesis, as exemplified by the decrease in p24 (FIG. 6).

[5] = system: HIV-1 molecular clone pNL4-3-Luc E-; assay: Firefly luciferase reporter in full-length HIV-1 molecular clone pNL4-3-Luc E-, 293T cells; type: cell-based, human; conditions: 30 μM, 12 hours post-transfection, FIG. 1C left
Description: (§2) (C) Specificity of inhibition by CPX. Cells were co-transfected with 500 ng pNL4-3-Luc E-, or with 100 ng of HIV-1 LTR-firefly luciferase reporter plasmid and 20 ng of pRSV-Tat, together with 100 ng of CMV-Renilla luciferase reporter plasmid. Buffer (Control), 30 μM ciclopirox (CPX), or 30 μM Princeton 2 (P2) was added during transfection, and cells were harvested at 12 hours post-transfection for luciferase assay. Results are presented as the ratio of firefly luciferase to Renilla luciferase, normalized to the controls, with standard deviations indicated.
(§3) Cells and plasmids. 293T cells were grown in Dulbecco's Modified Eagle's medium with 10% fetal bovine serum. pBSIIKS+HIV(+80-341) was constructed by subcloning the PCR-amplified HIV-1 sequence corresponding to nucleotides +80 to +341 of the HIV molecular clone (pNL4-3-Luc E-) between the SmaI and HindIII sites of the pBluescriptllKS+ vector (Stratagene, Calif.). Plasmids pSP-rluc and pCMV-Renilla were purchased from Promega (Madison, Wis.). The plasmids pRSV-Tat and pLTR-firefly luciferase were described earlier (Hogue et al. MCB 2003). The HIV-1 molecular clone pNL4-3-Luc E-, in which part of the Nef gene is replaced by firefly luciferase and the envelope gene is mutated (Chen B. K., J. Virol. 1994), was generously supplied by Dr. D. Baltimore.
(§4) Gene expression assays. […]

[6] = system: HIV-1 spliced and unspliced transcripts; assay: RNase protection assay of spliced and unspliced HIV-1 transcripts in transfected 293T cells; type: cell-based, human; conditions: 30 μM, FIG. 1A
Description: (§5) (A, B) Inhibition of accumulation of spliced and unspliced HIV transcripts. Human 293 T cells were co-transfected with plasmids carrying the HIV-1 molecular clone (10 μg) and a CMV-Renilla luciferase construct (2 μg). Ciclopirox (CPX) or Princeton 2 (P2) were added to a final concentration of 30 μM 3 hours later. RNA was isolated from nuclear and cytoplasmic fractions at 15 hours after transfection. RNase protection assays used probes for the HIV-1 major splice donor site sequence (A), and Renilla luciferase (B). Arrows indicate the positions of protected probe fragments corresponding to unspliced (US) and spliced (S) HIV-1 RNA and Renilla luciferase (R-Luc). Lanes marked ‘Probe’ contain undigested probe RNA equivalent to 10% of the input to protection assays. The radioactivity of the protected bands, quantified with a phosphoimager using ImageQuant, is expressed in relative units.
(§6) Cells and plasmids. 293T cells were grown in Dulbecco's Modified Eagle's medium with 10% fetal bovine serum. pBSIIKS+HIV(+80-341) was constructed by subcloning the PCR-amplified HIV-1 sequence corresponding to nucleotides +80 to +341 of the HIV molecular clone (pNL4-3-Luc E-) between the SmaI and HindIII sites of the pBluescriptllKS+ vector (Stratagene, Calif.). Plasmids pSP-rluc and pCMV-Renilla were purchased from Promega (Madison, Wis.). […]

patient-isolate of HIV-1 [7] = assay: HIV-1 p24 and RNA formation in fresh peripheral blood mononuclear cells acutely infected with a patient isolate; type: cell-based, human; conditions: acutely infected PBMC
Source text: This system is considered a close model for the actual infection of a human being by ‘wild-type’ HIV-1.

purified DOHH = molecular target: T2, purified DOHH (Homo sapiens, UniProt Q9BU89); assay: Inhibition of purified DOHH with labeled deoxyhypusine-containing eIF5A substrate; type: biochemical; conditions: FIG. 3
T2 sequence (Q9BU89 1-302): T1 sequence (Q9BU89 1-302)
Description: The assay was conducted by using purified enzyme and offering deoxhypusine-containing, deoxhypusine-labeled eIF5A as substrae, plus the appropriate cofactors (see FIG. 2). Enzyme activity was assessed by determining the amount of mature, ie. radioactive hypusine-containing eIF5A via protein hydrolysis, followed by amino acid analysis.

[8] = system: CMV-Renilla luciferase transcript; assay: RNase protection assay of CMV-Renilla luciferase transcript in transfected 293T cells; type: cell-based, human; conditions: 30 μM, FIG. 1B
Description: as §5, §6

[9] = system: HIV-1 LTR-firefly luciferase reporter; assay: HIV-1 LTR-firefly luciferase reporter with pRSV-Tat, 293T cells; type: cell-based, human; conditions: 30 μM, compared to control and P2, FIG. 1C right
Description: as §2, §3, §4

patient-isolate of HIV-1 [10] = assay: HIV-1 p24, RNA and proviral DNA in peripheral blood mononuclear cells chronically infected with a patient isolate; type: cell-based, human; conditions: FIG. 9
Description: The double y-axis plot of FIG. 9 summarizes the effect of deferiprone on HIV protein synthesis (p24 [left y-axis]), HIV RNA synthesis (copies [right y-axis]), and the presence of HIV DNA, integrated as provirus into the genome of the infected host cells. The cell system and mode of infection used are the same as in FIGS. 6 to 8, i.e. freshly isolated peripheral blood mononuclear cells infected with a patient-isolate of HIV-1, except that the compound was added only after the full-blown infection had developed. The design requires the addition of uninfected cells very second day, so as to keep the infection from burning out. […] The near-eradication of provirus is attributed to the selective apoptotic ablation of HIV-infected cells by DOHH inhibitors (see FIG. 8).

## 2-imidazoyl-4-methylphenol [IMP]
HIV-1 infected H9 cells
  apoptosis at maximal concentration: failed to elicit apoptosis
[1]
  inhibition of DOHH: uniformly ineffective
[2]; HIV-positive H9 cells
  inhibition of DOHH: uniformly ineffective

## CC(=O)N(O)CCCCCNC(=O)CCC(=O)N(O)CCCCCNC(=O)CCC(=O)N(O)CCCCCN [DES]
Uninfected lymphocytes
  apoptosis of lymphocytes harvested from healthy volunteers: failed to respond with apoptosis
HIV-1 infected H9 cells
  apoptosis at maximal concentration: failed to elicit apoptosis

## Cc1cc(C2CCCCC2)n(O)c(=O)c1 [ciclopirox, 6-cyclohexyl-l-hydroxy-4-methyl-2(1H)-pyridone]
[3]
  apoptosis in HPV infected human keratinocytes: does not trigger apoptosis
[3]; 40 μM, even after 120 hours
  apoptosis in SiHa cells: did not initiate apoptosis
HIV-1
  retroviral protein synthesis assessed via p24: suppressed retroviral protein synthesis
[4]
  apoptosis in PBMC: triggers apoptosis
Uninfected lymphocytes
  apoptosis in native human lymphocytes not infected by HIV-1: does not trigger apoptosis
  apoptosis of lymphocytes harvested from healthy volunteers: failed to respond with apoptosis
[5]
  expression of firefly luciferase reporter encoded in full-length genomic HIV-1 clone: distinctly more inhibitory effect than P2
[5]; listed as Ciclopirox
  expression of firefly luciferase reporter encoded in full-length genomic HIV-1 clone: reduces gene expression
[6]
  accumulation of spliced and unspliced HIV-1 transcripts: selectively suppresses
patient-isolate of HIV-1 [7]; FIG. 6
  formation of retroviral p24 protein: efficient in suppressing
patient-isolate of HIV-1 [7]; PCR, FIG. 7
  formation of retroviral RNA, viral load: efficient in suppressing
Purified DOHH
  inhibition of purified DOHH: disctinctly more susceptible to inhibition
HIV-1 infected H9 cells; 40 μM, 18 hours (overnight), HIV-1 infected H9 cells
  apoptosis, share of all cells: more than 30%
HIV-1 infected H9 cells
  initiation of apoptosis: dose-dependent initiation of apoptosis
HIV-1 infected H9 cells; listed as CPX
  initiation of apoptosis: triggered dose-dependent apoptosis
HIV-1 infected H9 cells; comparison compound class not given
  potency in causing a very similar spectrum of effects: about ten times more potent
[1]; 40 μM
  DOHH activity of SiHa cells: totally suppressed
[1]; dose dependence
  inhibition of DOHH: inhibited DOHH
[2]
  concentration with complete suppression of DOHH activity: 40 µM
  inhibition of cellular DOHH: dose-dependent inhibition
[2]; listed as (2)
  inhibition of cellular DOHH: dose-dependent inhibition
[2]; listed as CPX
  inhibition of cellular DOHH: inhibited DOHH
[8]
  transcript accumulation encoded by cytomegalovirus (CMV): does not affect transcript accumulation
[9]
  luciferase gene expression from HIV-1 LTR reporter lacking RRE: did not reduce luciferase gene expression

## Cc1c(O)c(=O)ccn1C [deferiprone]
patient-isolate of HIV-1 [10]; compound added after full-blown infection
  HIV protein synthesis (p24): undetectable
patient-isolate of HIV-1 [10]; end of experiment
  HIV DNA integrated as provirus: at best a trace of integrated provirus
patient-isolate of HIV-1 [10]; over the days after p24 became undetectable
  HIV RNA: dropped to the limit of detection
Uninfected lymphocytes
  apoptosis of lymphocytes harvested from healthy volunteers: failed to respond with apoptosis
HIV-1 infected H9 cells
  initiation of apoptosis: triggered dose-dependent apoptosis
[1]; dose dependence
  inhibition of DOHH: inhibited DOHH
[2]
  concentration with complete suppression of DOHH activity: 200 µM
  inhibition of cellular DOHH: inhibited DOHH
